Reference: US9162977B2, “Synthetic ion channels” (The University of Hong Kong, priority 2006, dated 2015)
Entries after “also recorded” stand apart in the source; their conditions may differ.

Experiments:
[1] = Single-channel recording by patch-clamp on giant liposomes; assay type: biochemical
Source text: Single-channel recording, using patch clamp techniques, is the most critical test for identifying ion channel formation, which is distinguished from other ion transport mechanisms such as ion carriers, and quantifying ion transport efficiency of a membrane channel. The channel-forming activity of Example 2 incorporated in lipid bilayers is examined using patch-clamp technique on giant liposomes.
The two key properties of ion channels in nature are ion selectivity, that is, a channel permits only certain ionic species to flow through its pore, and gating referring to the mechanism of channel opening and closing.

[2] = test system: human embryonic kidney (HEK 293) cells; assay: Whole-cell patch-clamp recording of chloride currents; assay type: cell-based
Procedure: The whole-cell configuration of the patch-clamp technique was used to examine the electrophysiological properties of the ionic currents induced by Example 2 in human embryonic kidney (HEK 293) cells. HEK 293 cell line originally obtained from the American Type Culture Collection, were cultured in DMEM supplemented with 10% FBS and 100 IU/ml penicillin G and 0.1 mg/ml streptomycin. Cells were grown at 37° C. in a 5% CO2 humidified incubator. Whole-cell chloride currents were recorded by using an EPC 9 patch clamp amplifier (HEKA Elektronik, Lambrecht/Pfalz, Germany) in voltage-clamp mode, controlled by Pulse/PulseFit 8.7 software (HEKA). Patch pipettes (resistance, 3-5 MΩ) were filled with a solution internal pipette solution containing CsCl 140, MgCl2 1, HEPES 10, EGTA 5, Na2ATP 5 (in mmol/L, pH 7.2 with CsOH). The bath solution contained NaCl 140, CsCl 5, CaCl2 1, MgCl2 1, HEPES 10 (in mmol/L, pH 7.4 with CsOH). After gigaohm seals were obtained, the membrane was ruptured with a pulsed negative pressure. Pipette and membrane capacitance were automatically compensated. Series resistance was typically compensated by 70%. […] All macroscopic currents were sampled at 50 kHz and filtered at 5 kHz, and data were analyzed with PulseFit (HEKA). Changes of Cl current were detected from the same cells before and after exposure to the bath solution containing Example 2 at the concentration of 50 nM. […]

[3] = pH-stat fluorometric transport assay (HPTS-loaded liposomes); assay type: biochemical
Source text: This Example illustrates that the compound of Example 2 mediates chloride release when incorporated into liposomes. The liposome-based pH-stat fluorometric assay is an assay routinely used for identification of physiologically relevant ionophores, which are disclosed in (a) Deng, G., Dewa, T. and Regen, S. L. J. Am. Chem. Soc. 1996, 118, 8975; (b) Schlesinger, P. H., Ferdani, R., Liu, J., Pajewska, J., Pajewski, R., Saito, M., Shabany, H. and Gokel, G. W. J. Am. Chem. Soc. 2002, 124, 1848; (c) Sidorov, V., Kotch, F. W., Abdrakhmanova, G., Mizani, R., Fettinger, J. C. and Davis, J. T. J. Am. Chem. Soc. 2002, 124, 2267; (d) Sidorov, V., Kotch, F. W., Kuebler, J. L., Lam, Y.-F. and Davis, J. T. J. Am. Chem. Soc. 2003, 125, 2840; and (e) Baumeister, B., Sakai, N. and Matile, S. Angew. Chem., Int. Ed. 2000, 39, 1955, all of which are incorporated herein by reference. For example, in this assay, a controlled amount of the base and potential ionophore is added to a suspension of liposomes containing a pH-sensitive dye, 8-hydroxypyrene-1,3,6-trisulfonate (HPTS, pyranine). The resulting pH gradient across the bilayer membrane causes the efflux of hydronium ions or the influx of hydroxide ions and builds up an electrostatic potential. This potential can be compensated by the efflux of anions or influx of cations (H^+/M^+ or OH^−/A^− antiport and H^+/A^− or M^+/OH^− symport mechanisms are possible). If the compound of interest mediates such ion transport, the efflux of hydronium ions or the influx of hydroxide ions continues altering the […] pH and the fluorescence of the reporter dye.
Example 2-mediated chloride release was determined in large unilamellar vesicles (LUVs) of 100 nm average dimension, as reported in Sidorov, V., Kotch, F. W., Abdrakhmanova, G., Mizani, R., Fettinger, J. C. and Davis, J. T. J. Am. Chem. Soc. 2002, 124, 2267. […] Importantly, Example 2 mediated electrolyte exchange with high anion selectivity. It mediated electrolyte exchange in the presence of chloride but not in the presence of sulfate (see FIG. 6).

## CC(C)CNC(=O)[C@@H](CC(C)C)ONC(=O)c1cccc(C(=O)NO[C@H](CC(C)C)C(=O)NCC(C)C)c1 [Example 2]
[1]; NMDG-Cl in the bath solution replaced by KCl
  change in conductance or reversal potential: no measurable change
[1]; giant liposomes, patch clamp
  ion selectivity of the channels formed: chloride selectivity; also recorded: anion selective
[1]; giant liposomes, patch clamp, FIG. 8
  gating of the channels formed: voltage dependent gating; also recorded: voltage-gated
[1]; symmetric 0.2 M N-methyl-glucamine hydrochloride (NMDG-Cl) solutions, compound in bath solution, FIG. 8
  primary single-channel conductance: 54 pS
[1]; upon increasing voltages of lipid bilayers within a physiologically relevant range, FIG. 8
  channel open probability (Po) and frequency: enhanced steeply
[2]; 50 nM in bath solution, room temperature, FIG. 9
  whole cell (chloride) currents: dramatically increases cell chloride currents; also recorded: large increase
[2]; in the presence of DIDS
  induced whole cell currents in the presence of an anion transport inhibitor: not reduced
other
  melting point: 176 to 178 °C
[3]; LUVs of 100 nm, NaCl extra- and intravesicular buffers, FIG. 5
  exchange between extra- and intravesicular electrolytes (chloride release): rapid, concentration-dependent exchange
[3]; LUVs symmetrically loaded with Na2SO4, FIG. 6
  transport activity in LUVs loaded with sulfate: no transport activity was detected
[3]; LUVs, NaCl extra- and intravesicular buffers, FIG. 7 and FIG. 12
  chloride transport across lipid bilayers of chloride-containing liposomes: mediates chloride transport across the bilayer

## CC(C)CNC(=O)[C@H](CC(C)C)NC(=O)c1cccc(C(=O)N[C@@H](CC(C)C)C(=O)NCC(C)C)c1 [Example 8]
other
  melting point: 240 to 242 °C

## CC(C)C[C@@H](ONC(=O)c1cccc(C(=O)NO[C@H](CC(C)C)C(=O)OC(C)(C)C)c1)C(=O)OC(C)(C)C [Example 1]
other
  melting point: 57 to 59 °C

## CCCCCCCCCCCCCCCCCCNC(=O)[C@@H](CC(C)C)ONC(=O)c1cccc(C(=O)NO[C@H](CC(C)C)C(=O)NCCCCCCCCCCCCCCCCCC)c1 [Example 5]
other
  melting point: 88 to 90 °C

## CC(C)CNC(=O)[C@H](CC(C)C)OC(=O)c1cccc(C(=O)O[C@@H](CC(C)C)C(=O)NCC(C)C)c1 [Example 9]
other
  melting point: 137 to 139 °C

## CC(C)CNC(=O)[C@@H](CC(C)C)ONC(=O)c1ccccc1 [Example 6]
other
  melting point: 130 to 132 °C

## CC(C)CNC(=O)[C@@H](CC(C)C)ONC(=O)c1cccc(C(=O)NO[C@H](CC(C)C)C(=O)NCC(C)C)n1 [Example 7]
other
  melting point: 175 to 177 °C
